Assay: solvent given as SMILES

Work on `CC(=O)OCCN1C(=O)c2cccc3c(Oc4ccc(C=O)cc4)ccc(c23)C1=O` yielded an absorption maximum (in ClC(Cl)Cl) of 353 nm.
Work on `Cc1c(C(=O)c2ccccc2Cl)c2ccc3cccc4c5cccc6ccc1c(c65)c2c34` yielded an absorption maximum (in ClCCl) of 390 nm.
`COc1ccc(-c2csc(/C(C#N)=C/c3c(Cl)cccc3Cl)n2)cc1` gave an absorption maximum (in CC#N) of 360 nm.
`CC(C)(C)OC(=O)NCCCC(=O)OCc1ccc2c3cccc4cccc(c5cccc1c52)c43` showed an absorption maximum (in CCO) of 439 nm.
Compound `CCN(CC)c1ccc2c(C#N)c(/C=C(\C#N)c3nc4ccccc4s3)c(=O)oc2c1` has an absorption maximum (in C1COCCO1) of 561 nm, an absorption maximum (in CC#N) of 597 nm and an absorption maximum (in CCO) of 602 nm. It also gave an absorption maximum (in CCOC(C)=O) of 568 nm, an absorption maximum (in CN(C)C=O) of 525 nm and an absorption maximum (in CO) of 591 nm. The absorption maximum (in CS(C)=O) was 531 nm, the absorption maximum (in Cc1ccccc1) was 560 nm and the absorption maximum (in ClCCl) was 611 nm.
Compound `F[B-]1(F)n2c(ccc2-c2ccccc2)C(C(F)(F)F)=C2C=CC(c3ccccc3)=[N+]21` has an absorption maximum (in CCCCCC) of 592 nm.
In the case of `CCCCCCCCn1cc(-n2c(-c3cc(-c4nc5ccc(C)cc5n4-c4cn(CCCCCCCC)nn4)cc(-c4nc5ccc(C)cc5n4-c4cn(CCCCCCCC)nn4)c3)nc3ccc(C)cc32)nn1`, the absorption maximum (in ClCCl) is reported as 309.5 nm.
`CCC1=C(C)C2=Cc3c4ccccc4c4n3[B-](c3ccccc3)(Oc3ccccc3-4)[N+]2=C1C` (centres undefined) showed an absorption maximum (in CC#N) of 621 nm, an absorption maximum (in CCCCCC) of 625 nm and an absorption maximum (in Cc1ccccc1) of 629 nm. It also gave an absorption maximum (in ClCCl) of 627 nm.
In the case of `c1ccc2c([SiH](c3c4ccccc4cc4ccccc34)c3c4ccccc4cc4ccccc34)c3ccccc3cc2c1`, the absorption maximum (in ClC(Cl)Cl) is reported as 401 nm.
`COc1c2ccccc2c(OC)c2c1c1c(F)cccc1n2C` gave an absorption maximum (in C1CCCCC1) of 403 nm, an absorption maximum (in CC#N) of 405 nm and an absorption maximum (in CO) of 404 nm. For the same compound, the absorption maximum (in ClCCl) was 406 nm.
With `Cc1ccc(-n2c(-c3ccccc3O)nc(-c3ccccc3O)c2-c2ccccc2O)cc1` the absorption maximum (in C1CCOC1) was 307 nm, the absorption maximum (in CC(C)O) was 303 nm and the absorption maximum (in CO) was 303 nm. For the same compound, the absorption maximum (in CS(C)=O) was 306 nm, the absorption maximum (in ClC(Cl)Cl) was 310 nm and the absorption maximum (in ClCCl) was 309 nm.
With `N#Cc1ncc(-c2c3ccccc3c(-c3cnc(C#N)nc3)c3ccccc23)cn1` the absorption maximum (in CCO) was 395 nm and the absorption maximum (in ClCCl) was 397 nm.
`CC1(C)C(=O)C=Cc2ccc(N3CCC3)cc21` gave an absorption maximum (in O) of 387 nm.
For `COc1cc2c(cc1F)c(=O)c1cc(F)c(OC)cc1n2-c1ccccc1`, the absorption maximum (in CCO) was 378 nm.
For `N#Cc1c(C#N)c2ccccc2c2ccccc12`, the absorption maximum (in ClC(Cl)Cl) was 346 nm.
Compound `Brc1cnc(-c2ccncc2)s1` has an absorption maximum (in CO) of 306 nm.
Compound `Cc1ccc(/C2=C3N=C(C(c4ccccc4)=C/3c3ccccc3)/C(c3ccc(C)cc3)=c3\[nH]/c(c(-c4ccccc4)c3-c3ccccc3)=C(/c3ccc(C)cc3)C3=N/C(=C(/c4ccc(C)cc4)c4[nH]c2c(-c2ccccc2)c4-c2ccccc2)C(c2ccccc2)=C3c2ccccc2)cc1` has an absorption maximum (in ClCCl) of 721 nm.
Work on `Nc1ccc2ccc3cccc4ccc1c2c34` yielded an absorption maximum (in CC#N) of 361 nm, an absorption maximum (in CCCCOCCCC) of 361 nm and an absorption maximum (in CO) of 357 nm.
`CCCC1=Cc2nc1ccc1[nH]c(cc1CCC)c1nc(c(OC(=O)CCCC(=O)OC(C)(C)C)cc3[nH]c2cc3CCC)C(CCC)=C1` gave an absorption maximum (in Cc1ccccc1) of 645 nm.
`Clc1nnc(O/N=C/c2ccc(N(c3ccc(Br)cc3)c3ccc(Br)cc3)cc2)nn1` gave an absorption maximum (in ClCCl) of 520 nm.
For `CC(=C(C#Cc1ccccc1)C#Cc1ccccc1)c1ccc(C(C)=C(C#Cc2ccccc2)C#Cc2ccccc2)cc1`, the absorption maximum (in ClC(Cl)Cl) was 360 nm.
`C=CCNc1ccc2ccc3oc4cc(=[N+]5CCCC5)ccc-4nc3c2c1` gave an absorption maximum (in CC#N) of 576 nm, an absorption maximum (in CCO) of 570 nm and an absorption maximum (in ClCCl) of 588 nm. It also gave an absorption maximum (in O) of 556 nm.
`CCCCC(CC)CN1C(=O)c2cccc3c(C#Cc4ccc(N(c5ccc(C#Cc6ccc7c8c(cccc68)C(=O)N(CC(CC)CCCC)C7=O)cc5)c5ccc(C#Cc6ccc7c8c(cccc68)C(=O)N(CC(CC)CCCC)C7=O)cc5)cc4)ccc(c23)C1=O` (centres undefined) gave an absorption maximum (in C1CCCCC1) of 444 nm, an absorption maximum (in C1CCOC1) of 447 nm and an absorption maximum (in CC#N) of 454 nm. The absorption maximum (in Cc1ccccc1) was 446 nm and the absorption maximum (in ClC(Cl)Cl) was 453 nm.
Compound `CCN(CC)c1ccc(C=Cc2nc3nc4ccccc4nc3s2)c(OC)c1` has an absorption maximum (in CO) of 485 nm.
With `COc1ccc(-c2cc(N3CCCCC3)c(C#N)c3c2-c2cccc4cccc-3c24)cc1` the absorption maximum (in O) was 430 nm.
With `COc1ccc(-c2nc(/C(C#N)=C/c3ccc(C#N)cc3)sc2-c2ccc(OC)cc2)cc1` the absorption maximum (in CC#N) was 407 nm.
For `CC(C)(C)c1ccc2c(c1)c1cc(C(C)(C)C)ccc1n2-c1ccc(-c2ccc3c(c2)C(=O)c2ccc(-c4ccc(-n5c6ccc(C(C)(C)C)cc6c6cc(C(C)(C)C)ccc65)cc4)cc2C3=O)cc1`, the absorption maximum (in Cc1ccccc1) was 426 nm.
Work on `Cc1ccc2nc(-c3cc(-c4nc5ccc(C)cc5[nH]4)cc(-c4nc5ccc(C)cc5[nH]4)c3)[nH]c2c1` yielded an absorption maximum (in CS(C)=O) of 322.8 nm.
With `COc1cc(N(c2ccccc2)c2ccc(C=C(C#N)C#N)c(OC)c2)ccc1C=C(C#N)C#N` the absorption maximum (in C1COCCO1) was 464 nm, the absorption maximum (in CC#N) was 477 nm and the absorption maximum (in CC(C)=O) was 470 nm. For the same compound, the absorption maximum (in CCOC(C)=O) was 468 nm, the absorption maximum (in CN(C)C=O) was 469 nm and the absorption maximum (in CO) was 471 nm. It also gave an absorption maximum (in Cc1ccccc1) of 471 nm, an absorption maximum (in ClC(Cl)Cl) of 480 nm and an absorption maximum (in ClCCl) of 479 nm.
For `CC(C)(C)c1cc2c(c(C(C)(C)C)c1)O[B-](F)(F)[n+]1c-2nc(-c2ccccc2)c2cc(Cl)ccc21`, the absorption maximum (in Cc1ccccc1) was 420 nm.
For `c1ccc(-n2nc(-c3ccc(N4c5ccccc5Sc5ccccc54)cc3)nc2-c2ccccn2)cc1`, the absorption maximum (in ClCCl) was 329 nm.
`CCn1c2ccccc2c2c(N(c3ccccc3)c3ccccc3)cccc21` showed an absorption maximum (in ClCCl) of 357 nm.
In the case of `CC1=CC(C)=[N+]2C1=C(c1ccc(I)cc1)c1c(C)cc(C)n1[B-]21OCCO1`, the absorption maximum (in ClC(Cl)Cl) is reported as 507 nm.
For `C[C@]12SC(=O)C=C1c1nc(-c3ccc(Cl)cc3)[nH]c1C1=CC(=O)S[C@@]12C`, the absorption maximum (in CC#N) was 451 nm.
Work on `CCC1(CC)c2cc(C#Cc3cccs3)ccc2-c2c1c1c(c3c2C(CC)(CC)c2cc(C#Cc4cccs4)ccc2-3)C(CC)(CC)c2cc(C#Cc3cccs3)ccc2-1` yielded an absorption maximum (in C1CCOC1) of 362 nm.
`C#CCn1c2ccccc2c2cc(/C=C/C3=[N+]4C(=C(c5ccc(I)cc5)c5c(C)c(Cl)c(/C=C/c6ccc7c(c6)c6ccccc6n7CC#C)n5[B-]4(F)F)C(C)=C3Cl)ccc21` gave an absorption maximum (in CC#N) of 694 nm, an absorption maximum (in CS(C)=O) of 705 nm and an absorption maximum (in ClC(Cl)Cl) of 703 nm.
Work on `Clc1ccccc1N1c2sc3ccccc3c2Sc2c1sc1ccccc21` yielded an absorption maximum (in ClCCl) of 421 nm.
`c1ccc(N(c2ccccc2)c2ccc(-c3ccc(-c4ccc(N(c5ccccc5)c5ccccc5)cc4)c4nsnc34)cc2)cc1` gave an absorption maximum (in ClCCl) of 459 nm.
In the case of `COc1ccc(/C=C/c2cc(/C=C/c3ccc(OC)cc3)nc(/C=C/c3ccc(C(F)(F)F)cc3)n2)cc1`, the absorption maximum (in ClCCl) is reported as 370 nm.
`CN1C(=CC2=C([O-])C(=Cc3oc4ccccc4[n+]3C)C2=C(C#N)C#N)C(C)(C)c2ccccc21` showed an absorption maximum (in ClC(Cl)Cl) of 655 nm.
`Cc1ccc(-c2ccc(/C=C/c3ccc(C#N)cc3)cn2)nc1` showed an absorption maximum (in CC#N) of 343 nm.
With `c1ccc(-c2nc(-c3ccccc3)nc(-c3ccc(-c4ccc5c(c4)C4(c6ccccc6-c6ccccc64)c4ccccc4N5c4ccccc4)cc3)n2)cc1` the absorption maximum (in c1cc(-c2cccc(-n3c4ccccc4c4ccccc43)c2)cc(-n2c3ccccc3c3ccccc32)c1) was 387.78 nm.
`O=C1c2ccccc2C(=O)C1C1C(=O)c2c3ccccc3cc3cc4ccccc4c1c23` (centres undefined) showed an absorption maximum (in ClCCl) of 505.72 nm.
In the case of `CCCCn1c2ccc(C#N)cc2c2cc(C#N)cc(-c3ccc(N(c4ccccc4)c4ccccc4)cc3)c21`, the absorption maximum (in ClCCl) is reported as 352 nm.
`N#Cc1c(N2CCCC2)cc(-c2ccccc2)c2c1C(=O)c1ccccc1-2` gave an absorption maximum (in C1CCOC1) of 358 nm.
For `Oc1ccc2ccccc2c1/C=N/c1cc2ccccc2cc1/N=C/c1c(O)ccc2ccccc12`, the absorption maximum (in CC#N) was 474 nm.
`CCN(CC)c1ccc(C2=C3C(C)=CC(C)=[N+]3[B-](F)(F)n3c(C)cc(C)c32)cc1` gave an absorption maximum (in CO) of 500 nm.
Compound `Nc1ccc2[nH]ncc2c1` has an absorption maximum (in C1CCCCC1) of 326 nm.
Compound `Cc1cc(=O)c2ccc(N)cc2o1` has an absorption maximum (in C1CCOC1) of 323 nm, an absorption maximum (in C1COCCO1) of 314 nm and an absorption maximum (in CC#N) of 315 nm. It also gave an absorption maximum (in CC(C)O) of 327 nm, an absorption maximum (in CCCCO) of 329 nm and an absorption maximum (in CCCO) of 329 nm. The absorption maximum (in CCOC(C)=O) was 315 nm, the absorption maximum (in CN(C)C=O) was 325 nm and the absorption maximum (in CO) was 327 nm. It also gave an absorption maximum (in CS(C)=O) of 326 nm, an absorption maximum (in ClC(Cl)Cl) of 311 nm and an absorption maximum (in O) of 322 nm.
`CCN(CC)c1ccc2cc(/C=C/c3cccc[n+]3CCCS(=O)(=O)[O-])c(=O)oc2c1` gave an absorption maximum (in C1CCOC1) of 513 nm, an absorption maximum (in CC#N) of 486 nm and an absorption maximum (in CC(C)=O) of 530 nm. It also gave an absorption maximum (in CS(C)=O) of 494 nm, an absorption maximum (in Cc1ccccc1) of 487 nm and an absorption maximum (in O) of 481 nm. The absorption maximum (in OCC(O)CO) was 496 nm.
`c1ccc(-n2c(-c3cccc4ccccc34)nc3c4ccccc4c4ccccc4c32)cc1` showed an absorption maximum (in Cc1ccccc1) of 356 nm.
With `CC1=C(c2ccccc2)Oc2cc3nc4ccccc4nc3c3cccc1c23` the absorption maximum (in ClCCl) was 495 nm.
`CC[N+]1(CC)CN2C(=N1)C(C(=O)O)=Cc1cc(SC)ccc12` gave an absorption maximum (in O) of 397 nm.
Compound `O=C([O-])c1ccccc1-c1c2cc(Br)c(=O)c(Br)c-2oc2c(Br)c([O-])c(Br)cc12` has an absorption maximum (in CC(C)O) of 529 nm, an absorption maximum (in CCO) of 527 nm and an absorption maximum (in CO) of 522 nm. It also gave an absorption maximum (in O) of 515 nm.
Work on `COc1ccsc1-c1ccc(-c2ccc(-c3sccc3OC)s2)s1` yielded an absorption maximum (in CCCCCCCCCCCCCC) of 409 nm.
Compound `CC(C)(C)c1ccc(C2=CC3=C(c4ccccc4)c4cc(-c5ccc(C(C)(C)C)cc5)c(-c5ccc(C(C)(C)C)cc5)n4[B-](F)(F)[N+]3=C2c2ccc(C(C)(C)C)cc2)cc1` has an absorption maximum (in C1CCCCC1) of 602 nm, an absorption maximum (in C1CCOC1) of 601 nm and an absorption maximum (in CC#N) of 590 nm. For the same compound, the absorption maximum (in Cc1ccccc1) was 605 nm and the absorption maximum (in ClCCl) was 598 nm.
In the case of `C(=N\c1ccc(-c2cn3nc(-c4cccs4)sc3n2)cc1)/c1ccc2ccc3cccc4ccc1c2c34`, the absorption maximum (in ClC(Cl)Cl) is reported as 403 nm.
`CC(=O)Nc1cc2ccc3cccc4ccc(c1)c2c34` showed an absorption maximum (in CC#N) of 334 nm, an absorption maximum (in CCCCOCCCC) of 336 nm and an absorption maximum (in CO) of 334 nm.
`N#Cc1c(C#N)c2cc(F)ccc2c2ccc(F)cc12` gave an absorption maximum (in ClC(Cl)Cl) of 335 nm.

— the Deep4Chem optical property database
